The data set addresses SOD1. The settings on record: ASO.

“And” between values parts separate entries of the source, which are not always exact repeats. Equal entries are not always repeated. After the bases stand the sugars from the 5' end (letter, count) and the backbone: PS all phosphorothioate, else s phosphorothioate and o phosphodiester by linkage. Methylation of C is not given here. e = 2'-O-(2-methoxyethyl) (MOE); k = constrained ethyl (cEt); d = 2'-deoxy (DNA)

Regarding “TTAATGTTTATCAGGA (sugars kekeddddddddekek, linkages s1 o3 s8 o1 s2)”, the target mRNA inhibition runs as follows: (A431, 0.12 µM) 3%; (A431, 0.6 µM) 45%; (A431, 3 µM) 65%; (A431, 15 µM) 81%; (HepG2, 0.222 µM) 53%; (HepG2, 0.667 µM) 82%. Also, the target mRNA inhibition runs as follows: (HepG2, 2 µM) 91%; (HepG2, 6 µM) 96%.
Regarding “CAAGTTTAATACCCATC (sugars e2 k2 d9 k2 e2, PS)”, the target mRNA inhibition (HepG2, 5 µM) was found to be 62%.
Turning to “TGTTTAATGTTTATCA (sugars ekddddddddekekee, linkages s1 o1 s8 o3 s2)”, the target mRNA inhibition came to 0% (A431, 0.12 µM); 13% (A431, 0.6 µM); 31% (A431, 3 µM); 49% (A431, 15 µM).
Where the note is “HepG2, 3 µM”, “TTTCTACAGCTAGCAGG (sugars e3 k2 d7 k2 e3, PS)” returned a target mRNA inhibition of 38%.
Turning to “TTCCTTCTGCTCGAAAT (sugars e3 k2 d7 k2 e3, PS)”, the target mRNA inhibition (HepG2, 3 µM) amounted to 13%.
“ATCTTCCAAGTGATCAT (sugars e2 k2 d8 k2 e3, PS)” returned a target mRNA inhibition (HepG2, 5 µM) of 38%.
Regarding “AGAGGATTAAAGTGAGG (sugars e3 k2 d7 k2 e3, PS)”, under “HepG2, 3 µM”, the target mRNA inhibition is 16%.
As to “ACAAGTTTAATACCCAT (sugars e2 k2 d8 k2 e3, PS)”, the target mRNA inhibition (HepG2, 5 µM) stood at 58%.
As to “ATTTCTACAGCTAGCAGGAT (sugars e5 d10 e5, PS)”, the target mRNA inhibition came to 69% (HepG2, 4 µM) and 82% (HepG2, 12 µM).
As for “CTCATAATAAGTGCCAT (sugars e2 k2 d8 k2 e3, PS)”, the target mRNA inhibition (HepG2, 5 µM) is 30%.
As for “CCTCATAATAAGTGCCA (sugars e2 k2 d8 k2 e3, PS)”, the target mRNA inhibition (HepG2, 5 µM) came to 29%.
With “TAATGCTTCCCCACACC (sugars e3 k2 d7 k2 e3, PS)”, for the setting “HepG2, 3 µM”, the target mRNA inhibition is 52%.
Regarding “AATACCCATCTGTGATT (sugars e3 k2 d7 k2 e3, PS)”, where the note is “HepG2, 3 µM”, the target mRNA inhibition was 7%.
For the setting “HepG2, 5 µM”, “AGGTCATTGAAACAGAC (sugars e2 k2 d8 k2 e3, PS)” yielded a target mRNA inhibition of 40%.
Still for that read-out and setting: as for “ACCACAAGCCAAACGACTTC (sugars e5 d10 e5, PS)”, the figure is 28%.
On to “GGATACATTTCTACAG (sugars kekeddddddddekek, linkages s1 o3 s8 o1 s2)”, for which the target mRNA inhibition reads like this: (A431, 0.12 µM) 0%; (A431, 0.6 µM) 0%; (A431, 3 µM) 0%; (A431, 15 µM) 14%.
The sequence “TTGGATTCTTTTAATAG (sugars e3 k2 d7 k2 e3, PS)” came in with a target mRNA inhibition (HepG2, 3 µM) of 8%.
“AAATTCTGACAAGTTTA (sugars e3 k2 d7 k2 e3, PS)” had a target mRNA inhibition (HepG2, 3 µM) of 21%.
“CAGTCCTTTAATGCTTCCCC (sugars e5 d10 e5, PS)”: for the setting “HepG2, 5 µM”, the target mRNA inhibition was 51% and 40%.
As to “CACCGTGTTTTCTGGATAGA (sugars e5 d10 e5, PS)”, the target mRNA inhibition (HepG2, 5 µM) was 24% and 11%.
Under “HepG2, 5 µM”, “CCAAGTGATCATAAATC (sugars e2 k2 d9 k2 e2, PS)” displayed a target mRNA inhibition of 48%.
Take “GCTAGCAGGATAACAGA (sugars e3 k2 d7 k2 e3, PS)”: the target mRNA inhibition (HepG2, 3 µM) came out at 10%.
Sequence “AATCTTCCAAGTGATCA (sugars e3 k2 d7 k2 e3, PS)” came in with a target mRNA inhibition (HepG2, 3 µM) of 23%.
Turning to “TTTCTACAGCTAGCAGG (sugars e2 k2 d8 k2 e3, PS)”, the target mRNA inhibition was 16% (HepG2, 0.1875 µM); 58% (HepG2, 0.75 µM); 78% (HepG2, 3 µM); 76% (HepG2, 4 µM); 87% (HepG2, 12 µM).
In the case of “CAAGGGAATGTTTATTG (sugars e3 k2 d7 k2 e3, PS)”, for the setting “HepG2, 3 µM”, the target mRNA inhibition amounted to 19%.
As to “TCAGGATACATTTCTACAGC (sugars e5 d10 e5, linkages s1 o3 s11 o3 s1)”, the target mRNA inhibition is, setting by setting: (A431, 0.12 µM) 9%; (A431, 0.6 µM) 8%; (A431, 3 µM) 21%; (A431, 15 µM) 49%; (HepG2, 0.222 µM) 25%; (HepG2, 0.667 µM) 50%. Also, the target mRNA inhibition by setting is: (HepG2, 2 µM) 92%; (HepG2, 6 µM) 73%.
With “ACACCACAAGCCAAACG (sugars e2 k2 d9 k2 e2, PS)”, the target mRNA inhibition (HepG2, 4 µM) turned out to be 45%.
As to “TCTGCTCGAAATTGATGATG (sugars e5 d10 e5, PS)”, the target mRNA inhibition (HepG2, 4 µM) was found to be 14%.
With “GCCTCATAATAAGTGCC (sugars e2 k2 d9 k2 e2, PS)”, for the setting “HepG2, 5 µM”, the target mRNA inhibition is 33%.
“TACAGGTACTTTAAAGC (sugars e2 k2 d9 k2 e2, PS)” had a target mRNA inhibition (HepG2, 5 µM) of 26%.
Sequence “AGACTACATCCAAGGGA (sugars e3 k2 d7 k2 e3, PS)” returned a target mRNA inhibition (HepG2, 3 µM) of 39%.
“TTATCAGGATACATTTC (sugars e2 k2 d8 k2 e3, PS)”: under “HepG2, 4 µM”, the target mRNA inhibition came out at 57%.
“TGTTTATTGGGCGATCC (sugars e2 k2 d9 k2 e2, PS)” yielded a target mRNA inhibition (HepG2, 4 µM) of 47%.
“ATTTCTACAGCTAGCAG (sugars e3 k2 d7 k2 e3, PS)”: the target mRNA inhibition (HepG2, 3 µM) was found to be 45%.
In the case of “AATGTTTATCAGGATA (sugars ekddddddddekekee, linkages s1 o1 s8 o3 s2)”, the target mRNA inhibition (A431, 0.12 µM) worked out at 10%; the target mRNA inhibition (A431, 0.6 µM) amounted to 30%; the target mRNA inhibition (A431, 3 µM) stood at 51%; the target mRNA inhibition (A431, 15 µM) stood at 72%.
“CATCTGTGATTTAAGTCTGG (sugars e5 d10 e5, PS)”: the target mRNA inhibition (HepG2, 5 µM) amounted to 29%.
With “GGTTTTTATTCACAGGC (sugars e3 k2 d7 k2 e3, PS)”, where the note is “HepG2, 3 µM”, the target mRNA inhibition was 22%.
Turning to “CGACTACTTTATAGGCC (sugars e3 k2 d7 k2 e3, PS)”, for the setting “HepG2, 3 µM”, the target mRNA inhibition amounted to 12%.
With “CTCACTACAGGTACTTTAAA (sugars e5 d10 e5, PS)”, the target mRNA inhibition (HepG2, 5 µM) amounted to 25%.
The sequence “CAATTACACCACAAGCC (sugars e3 k2 d7 k2 e3, PS)” came in with a target mRNA inhibition (HepG2, 3 µM) of 33%.
As for “GGACCTGCACTGGTACA (sugars e3 k2 d7 k2 e3, PS)”, the target mRNA inhibition (HepG2, 3 µM) was 7%.
On the same count and under the same terms, as for “CATTTCCACCTTTGCCC (sugars e3 k2 d7 k2 e3, PS)”, the figure is 73%; as for “AGTCATCTGCTTTTTCA (sugars e3 k2 d7 k2 e3, PS)”, 76%.
On to “TCACACAATTACACTTT (sugars e2 k2 d8 k2 e3, PS)”, for which the target mRNA inhibition (HepG2, 5 µM) was determined as 28%.
For the setting “HepG2, 4 µM”, “AGCTAGCAGGATAACAG (sugars e2 k2 d9 k2 e2, PS)” gave a target mRNA inhibition of 54%.
As to “CTTCCCCACACCTTCA (sugars kekeddddddddekek, linkages s1 o3 s8 o1 s2)”, the target mRNA inhibition came to 0% (A431, 0.12 µM); 8% (A431, 0.6 µM); 8% (A431, 3 µM); 18% (A431, 15 µM); 8% (HepG2, 0.222 µM); 14% (HepG2, 0.667 µM). The sequence further came in with a target mRNA inhibition (HepG2, 2 µM) of 51% and a target mRNA inhibition (HepG2, 6 µM) of 76%.
Sequence “TGCTTCCCCACACCTTC (sugars e3 k2 d7 k2 e3, PS)” gave a target mRNA inhibition (HepG2, 3 µM) of 43%.
On the same count and under the same terms, as for “GTCATTGAAACAGACAT (sugars e3 k2 d7 k2 e3, PS)”, the figure is 23%; as for “CCCCACACCTTCACTGG (sugars e3 k2 d7 k2 e3, PS)”, 14%.
“ATCCTTTGGCCCACCGT (sugars e3 k2 d7 k2 e3, PS)” came in with a target mRNA inhibition (HepG2, 3 µM) of 51%.
